Data on 5 compounds can be found in ChEMBL document CHEMBL4321798, “Old but Gold: Tracking the New Guise of Histone Deacetylase 6 (HDAC6) Enzyme as a Biomarker and Therapeutic Target in Rare Diseases” (J Med Chem, 2020).

Assay [1] is described as follows: Inhibition of maize HD2. Also noted: species or system Zea mays.
Assay [2] in a line: Inhibition of maize HD1-A. Also noted: species or system Zea mays.
Assay [3] concerns the target T1, Protein deacetylase HDAC6 (Homo sapiens, UniProt Q9UBN7).
T1 sequence (Q9UBN7 whole entry): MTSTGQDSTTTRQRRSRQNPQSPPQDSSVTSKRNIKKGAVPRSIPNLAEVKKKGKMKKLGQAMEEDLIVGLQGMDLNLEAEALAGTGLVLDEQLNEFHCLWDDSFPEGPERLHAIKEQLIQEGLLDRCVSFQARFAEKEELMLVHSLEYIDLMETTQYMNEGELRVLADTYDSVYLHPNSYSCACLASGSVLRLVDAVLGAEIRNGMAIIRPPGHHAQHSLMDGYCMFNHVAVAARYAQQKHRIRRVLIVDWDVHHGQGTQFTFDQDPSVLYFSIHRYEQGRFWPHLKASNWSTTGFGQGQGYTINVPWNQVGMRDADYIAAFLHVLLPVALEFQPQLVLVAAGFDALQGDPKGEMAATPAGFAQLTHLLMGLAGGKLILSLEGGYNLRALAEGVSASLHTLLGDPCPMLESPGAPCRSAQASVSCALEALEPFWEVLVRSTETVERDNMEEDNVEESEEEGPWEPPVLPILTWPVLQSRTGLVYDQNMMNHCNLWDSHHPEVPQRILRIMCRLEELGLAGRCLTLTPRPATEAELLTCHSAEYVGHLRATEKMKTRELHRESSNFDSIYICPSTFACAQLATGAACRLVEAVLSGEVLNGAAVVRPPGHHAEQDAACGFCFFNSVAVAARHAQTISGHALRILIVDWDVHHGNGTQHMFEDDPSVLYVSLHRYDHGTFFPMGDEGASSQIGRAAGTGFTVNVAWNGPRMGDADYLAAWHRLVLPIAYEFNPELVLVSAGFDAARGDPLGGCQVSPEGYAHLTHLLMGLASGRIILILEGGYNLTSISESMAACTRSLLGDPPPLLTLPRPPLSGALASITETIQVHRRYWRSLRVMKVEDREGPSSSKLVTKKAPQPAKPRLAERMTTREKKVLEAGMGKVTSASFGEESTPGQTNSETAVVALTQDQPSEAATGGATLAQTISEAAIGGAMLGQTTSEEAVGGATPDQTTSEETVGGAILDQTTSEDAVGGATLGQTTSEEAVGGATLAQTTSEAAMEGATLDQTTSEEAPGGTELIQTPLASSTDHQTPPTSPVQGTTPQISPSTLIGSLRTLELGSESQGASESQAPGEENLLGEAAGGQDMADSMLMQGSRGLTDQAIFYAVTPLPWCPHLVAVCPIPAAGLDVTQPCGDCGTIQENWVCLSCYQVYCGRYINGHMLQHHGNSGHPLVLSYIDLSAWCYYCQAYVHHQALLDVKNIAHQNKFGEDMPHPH
Description: Inhibition of HADC6 (unknown origin).

The next assay addresses Histone deacetylase 1 (Homo sapiens, UniProt Q13547). Description: Inhibition of HADC1 (unknown origin).

Broadly, the IC50 is the concentration at which inhibition is half-maximal. Low values mean greater potency in that assay, high ones weaker potency in that assay.

Sequence of Histone deacetylase 1 (Q13547 whole entry): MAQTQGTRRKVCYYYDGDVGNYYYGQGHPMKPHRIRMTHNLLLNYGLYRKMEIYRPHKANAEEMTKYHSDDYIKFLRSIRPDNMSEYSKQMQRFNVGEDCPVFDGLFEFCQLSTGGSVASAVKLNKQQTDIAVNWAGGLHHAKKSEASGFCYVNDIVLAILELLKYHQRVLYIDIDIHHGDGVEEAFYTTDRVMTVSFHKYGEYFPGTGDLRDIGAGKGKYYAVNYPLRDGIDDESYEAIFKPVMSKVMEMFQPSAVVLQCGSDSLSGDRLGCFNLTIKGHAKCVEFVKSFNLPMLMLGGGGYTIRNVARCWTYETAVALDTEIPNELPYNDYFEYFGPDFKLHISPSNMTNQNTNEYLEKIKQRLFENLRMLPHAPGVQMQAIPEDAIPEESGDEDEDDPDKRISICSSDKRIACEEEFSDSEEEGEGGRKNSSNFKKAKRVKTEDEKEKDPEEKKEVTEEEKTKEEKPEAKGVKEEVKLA

The compound `CN(C)c1ccc(C(=O)NCCCCCCC(=O)NO)cc1` had a concentration for half-maximal inhibition (IC50) in assay [1] of 100 nM. In turn, `Cn1cc(/C=C/C(=O)c2cccc(F)c2)cc1/C=C/C(=O)NO` yielded an IC50 in assay [2] of 100 nM. In the case of `Cc1nc2ccccc2n1Cc1ccc(C(=O)NO)cc1F`, the IC50 in assay [3] came out at 3 nM; on Histone deacetylase 1, 4320 nM. For `CC(C)[C@H]1NC(=O)[C@H]2CSSCC/C=C/[C@H](CC(=O)N[C@H](C)C(=O)N2)OC(=O)C[C@@H]1O` [OBP-801], in that order: 1600 nM and 3.3 nM.

Compound `CCCC(CCC)C(=O)O` [VALPROIC ACID] gave an IC50 against Histone deacetylase 1 of 40000 nM.
